Assay results published in US20060286131A1, “Use of stellate ganglion block for the treatment of hot flashes and other conditions” (priority 2005, published 2006).

System: severe menopausal hot flashes
Test: stellate ganglion block with Marcaine in women with hot flashes, self-reported pre and post block
Format: in vivo
From the text: A stellate ganglion block is illustratively performed by placing the patient in the supine position (on the back) with the neck slightly extended and the jaw open. While the patient is usually conscious for the procedure, a medication such as Versed (midazolam hydrochloride), fentanyl, or other sedative is often administered, to relax the patient. A local anesthetic is also usually administered, to numb the skin and tissue down to the ganglion nerve. A needle is inserted toward the stellate ganglion. […] The needle 20 is shown inserted adjacent to the stellate ganglion 10. In the illustrative block, a contrast solution is injected through needle 20 via syringe 22, and the needle position is confirmed by fluoroscopy or other means, as are known in the art.
The anesthetic 30 is then injected via needle 20 into stellate ganglion 10. Illustratively, 5 cc 0.375% Marcaine® (bupivacaine) may be used. However, it is understood that other anesthetics, illustratively lidocaine, morphine or other opioids, clonidine, botox, or tetracine, or a combination of anesthetic and epinephrine, may be used and that the dosage range may vary depending on the particular anesthetic and other factors, as are known in the art. Needle 20 is removed, and the patient is optionally placed in the sitting position to facilitate the spread of anesthesia inferiorly to the stellate ganglion. Illustratively, longer acting anesthetics such as bupivacaine are used, but other anesthetics may be used, as are known in the art. The stellate ganglion block may also be performed by radiofrequency lesioning, as is known in the art.
Six women suffering from severe menopausal hot flashes each received a standard stellate ganglion block (0.375% Marcaine, 5cc), as described above. Hot flashes were assessed by self-reporting pre and post stellate ganglion block.

## CCCCN1CCCCC1C(=O)Nc1c(C)cccc1C (stereo not shown) [Marcaine, bupivacaine]
0.375% Marcaine 5cc, second block after mild hot flashes returned
  additional asymptomatic period of relief after second stellate ganglion block: 4-18 weeks
Repeated blocks, each case
  hot flash relief of repeated blocks compared with the initial block: equal to or greater than that of the initial block
Six women, 0.375% Marcaine 5cc
  success of initial stellate ganglion block, evidenced by positive Horner's syndrome and anhydrosis: successful in all six subjects
Six women, 0.375% Marcaine 5cc, first block, self-reported
  complete alleviation of hot flashes, duration after initial stellate ganglion block: 2-5 weeks
